Assay results from ChEMBL document CHEMBL1201862, “PubChem BioAssay data set” (2004).
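Compound exposure: 48 hours, 5 concentrations, 96-well plates. At the GI50, growth is halved.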 Active and inactive are the calls of the source. No stated cut-off is given here; in the data, active = GI50 up to about 1.1 µM and inactive = higher.

Key:
Test in all cases: growth of human tumour cells (NCI), 48 h
SK-MEL-2 = system: SK-MEL-2
HOP-62 = system: HOP-62
MDA-MB-231 = system: MDA-MB-231
EKVX = system: EKVX
CAKI-1 = system: CAKI-1
A498 = system: A498
MDA-N = system: MDA-N
HT-29 = system: HT-29
OVCAR-3 = system: OVCAR-3
SF-268 = system: SF-268
UACC-257 = system: UACC-257
IGROV-1 = system: IGROV-1
OVCAR-5 = system: OVCAR-5
RPMI-8226 = system: RPMI-8226
HCC 2998 = system: HCC 2998
MOLT-4 = system: MOLT-4
NCI-H460 = system: NCI-H460
RXF 393 = system: RXF 393
NCI/ADR-RES = system: NCI/ADR-RES
HL-60 = system: HL-60

Oc1c(OCc2nnc(CCCCCCCCc3nnc(COc4ccc5ccccc5c4O)n3Nc3ccccc3)n2Nc2ccccc2)ccc2ccccc12
GI50 (SK-MEL-2): 9.12 µM (inactive) | GI50 (HOP-62): 0.261 µM (active) | GI50 (MDA-MB-231): 8.95 µM (inactive) | GI50 (EKVX): 11.6 µM (inactive) | GI50 (CAKI-1): 0.676 µM (active) | GI50 (A498): 16.1 µM (inactive) | GI50 (MDA-N): 1.62 µM (inactive) | GI50 (HT-29): 8.28 µM (inactive) | GI50 (OVCAR-3): 8.02 µM (inactive) | GI50 (SF-268): 10.7 µM (inactive) | GI50 (UACC-257): 4.21 µM (inactive) | GI50 (IGROV-1): 12 µM (inactive) | GI50 (OVCAR-5): 5.47 µM (inactive) | GI50 (RPMI-8226): 0.682 µM (active) | GI50 (HCC 2998): 5.26 µM (inactive) | GI50 (MOLT-4): 12.7 µM (inactive) | GI50 (NCI-H460): 1.26 µM (inactive) | GI50 (RXF 393): 16.2 µM (inactive) | GI50 (NCI/ADR-RES): 11 µM (inactive)

OC(CC(CC(O)(C(F)(F)F)C(F)(F)F)=NN=C(CC(O)(C(F)(F)F)C(F)(F)F)CC(O)(C(F)(F)F)C(F)(F)F)(C(F)(F)F)C(F)(F)F
GI50 (SK-MEL-2): > 10 µM (inactive) | GI50 (HOP-62): > 10 µM (inactive) | GI50 (MDA-MB-231): > 10 µM (inactive) | GI50 (EKVX): > 10 µM (inactive) | GI50 (CAKI-1): > 10 µM (inactive) | GI50 (A498): > 10 µM (inactive) | GI50 (MDA-N): > 10 µM (inactive) | GI50 (HT-29): > 10 µM (inactive) | GI50 (OVCAR-3): > 10 µM (inactive) | GI50 (HL-60): > 10 µM (inactive) | GI50 (SF-268): > 10 µM (inactive) | GI50 (UACC-257): > 10 µM (inactive) | GI50 (IGROV-1): > 10 µM (inactive) | GI50 (OVCAR-5): > 10 µM (inactive) | GI50 (RPMI-8226): > 10 µM (inactive) | GI50 (HCC 2998): > 10 µM (inactive) | GI50 (MOLT-4): > 10 µM (inactive) | GI50 (NCI-H460): > 10 µM (inactive) | GI50 (RXF 393): > 10 µM (inactive) | GI50 (NCI/ADR-RES): > 10 µM (inactive)

CCOc1cc(/C=N\O)cc(/C=N/O)c1O
GI50 (SK-MEL-2): 18.1 µM (inactive) | GI50 (HOP-62): 37.1 µM (inactive) | GI50 (MDA-MB-231): 69.8 µM (inactive) | GI50 (EKVX): 33.3 µM (inactive) | GI50 (CAKI-1): 21.9 µM (inactive) | GI50 (A498): 18 µM (inactive) | GI50 (MDA-N): 35.6 µM (inactive) | GI50 (HT-29): 29.4 µM (inactive) | GI50 (OVCAR-3): 31.1 µM (inactive) | GI50 (HL-60): 18.1 µM (inactive) | GI50 (SF-268): 22.6 µM (inactive) | GI50 (UACC-257): 47.2 µM (inactive) | GI50 (OVCAR-5): 50.6 µM (inactive) | GI50 (RPMI-8226): 24.7 µM (inactive) | GI50 (HCC 2998): 56.5 µM (inactive) | GI50 (MOLT-4): 29.1 µM (inactive) | GI50 (NCI-H460): 31.9 µM (inactive) | GI50 (RXF 393): 14.5 µM (inactive) | GI50 (NCI/ADR-RES): 41.7 µM (inactive)

Cn1c2ccccc2n2c3ncccc3/c(=N/CCCC(=O)O)c(C#N)c12
GI50 (SK-MEL-2): > 100 µM (inactive) | GI50 (HOP-62): > 100 µM (inactive) | GI50 (MDA-MB-231): > 100 µM (inactive) | GI50 (EKVX): > 100 µM (inactive) | GI50 (CAKI-1): > 100 µM (inactive) | GI50 (A498): > 100 µM (inactive) | GI50 (MDA-N): > 100 µM (inactive) | GI50 (HT-29): > 100 µM (inactive) | GI50 (OVCAR-3): > 100 µM (inactive) | GI50 (HL-60): > 100 µM (inactive) | GI50 (SF-268): > 100 µM (inactive) | GI50 (IGROV-1): > 100 µM (inactive) | GI50 (OVCAR-5): > 100 µM (inactive) | GI50 (RPMI-8226): > 100 µM (inactive) | GI50 (HCC 2998): > 100 µM (inactive) | GI50 (MOLT-4): > 100 µM (inactive) | GI50 (NCI-H460): > 100 µM (inactive) | GI50 (RXF 393): > 100 µM (inactive) | GI50 (NCI/ADR-RES): > 100 µM (inactive)

CCCCCCCCCCCCCCCCCCOCC(COCCOCC[N+]1(CCCCCC(=O)[O-])CCCC1)Oc1ncccn1 (configuration not stated)
GI50 (SK-MEL-2): 6.05 µM (inactive) | GI50 (HOP-62): 1.88 µM (inactive) | GI50 (MDA-MB-231): 8.22 µM (inactive) | GI50 (EKVX): 14.6 µM (inactive) | GI50 (CAKI-1): 9.51 µM (inactive) | GI50 (A498): 5.94 µM (inactive) | GI50 (MDA-N): 10.5 µM (inactive) | GI50 (HT-29): 1.73 µM (inactive) | GI50 (OVCAR-3): 5.2 µM (inactive) | GI50 (HL-60): 0.395 µM (active) | GI50 (SF-268): 3.51 µM (inactive) | GI50 (UACC-257): 8.02 µM (inactive) | GI50 (IGROV-1): 0.622 µM (active) | GI50 (OVCAR-5): 2.99 µM (inactive) | GI50 (RPMI-8226): 1.04 µM (active) | GI50 (HCC 2998): 2.51 µM (inactive) | GI50 (MOLT-4): 4.92 µM (inactive) | GI50 (NCI-H460): 2.36 µM (inactive) | GI50 (RXF 393): 1.4 µM (inactive) | GI50 (NCI/ADR-RES): 15.4 µM (inactive)

COc1ccc2c(-c3ccc(O)cc3)c(Oc3ccccc3)c(=O)oc2c1
GI50 (SK-MEL-2): > 100 µM (inactive) | GI50 (HOP-62): 31.1 µM (inactive) | GI50 (MDA-MB-231): 18.8 µM (inactive) | GI50 (EKVX): 4.89 µM (inactive) | GI50 (CAKI-1): 2.72 µM (inactive) | GI50 (A498): > 31.4 µM (inactive) | GI50 (MDA-N): > 100 µM (inactive) | GI50 (HT-29): 11.7 µM (inactive) | GI50 (OVCAR-3): 5.4 µM (inactive) | GI50 (HL-60): 7.96 µM (inactive) | GI50 (SF-268): > 32.9 µM (inactive) | GI50 (UACC-257): > 100 µM (inactive) | GI50 (IGROV-1): 3.78 µM (inactive) | GI50 (OVCAR-5): > 24.4 µM (inactive) | GI50 (RPMI-8226): 2.62 µM (inactive) | GI50 (HCC 2998): 18.3 µM (inactive) | GI50 (MOLT-4): 5.11 µM (inactive) | GI50 (NCI-H460): 11.9 µM (inactive) | GI50 (RXF 393): 11.8 µM (inactive) | GI50 (NCI/ADR-RES): 14.2 µM (inactive)

CCn1c2ccc(C(=O)CCCN3CCCCC3)cc2c2cc(C(=O)CCCN3CCCCC3)ccc21
GI50 (SK-MEL-2): 1.78 µM (inactive) | GI50 (HOP-62): 3.3 µM (inactive) | GI50 (MDA-MB-231): 1.83 µM (inactive) | GI50 (EKVX): 4.84 µM (inactive) | GI50 (CAKI-1): 3.48 µM (inactive) | GI50 (A498): 5.7 µM (inactive) | GI50 (MDA-N): 2.22 µM (inactive) | GI50 (HT-29): 1.39 µM (inactive) | GI50 (OVCAR-3): 2.11 µM (inactive) | GI50 (HL-60): 13.2 µM (inactive) | GI50 (SF-268): 4.94 µM (inactive) | GI50 (UACC-257): 1.9 µM (inactive) | GI50 (IGROV-1): 2.08 µM (inactive) | GI50 (OVCAR-5): 6.95 µM (inactive) | GI50 (RPMI-8226): 1.75 µM (inactive) | GI50 (HCC 2998): 5.94 µM (inactive) | GI50 (MOLT-4): 0.524 µM (active) | GI50 (NCI-H460): 0.998 µM (active) | GI50 (RXF 393): 2.63 µM (inactive) | GI50 (NCI/ADR-RES): 3.78 µM (inactive)
